Measurements as given in paper PMC5118987 (Antimicrobial Agents and Chemotherapy, 2016).

What was measured:
RSV strain A2 = experiment: microbe, parasite or virus in culture; assay type: cell-based, respiratory syncytial virus; settings: read-out: EC50
HIV-1 clinical isolates = experiment: Antiviral assay against HIV-1 clinical isolates in fresh human PBMCs (RT endpoint)
HIV-2 CDC 310319 = experiment: Antiviral assay against HIV-2 isolate in fresh human PBMCs (RT endpoint); settings: Human immunodeficiency virus 2, PBMC
in vitro [1] = settings: human
[2] = tested on: HRV (mixture of HRV1A, HRV14, HRV16); experiment: microbe, parasite or virus in culture; assay type: cell-based; settings: Human rhinovirus sp., H1-HeLa
in vitro [3] = settings: human; remark: listed apart in the source
HCV 1b Replicon = experiment: Anti-HCV activity, HCV 1b replicon; settings: Hepatitis C virus, Huh-7
HCV 2a Replicon = experiment: Anti-HCV activity, HCV 2a replicon; settings: Hepatitis C virus, Huh-7
in vitro [4] = settings: human; remark: listed apart in the source
in vitro [5] = settings: human; remark: listed apart in the source
Influenza B/LEE/40 = experiment: microbe, parasite or virus in culture; assay type: cell-based; settings: NHBE
Influenza A/PC/1/73 = experiment: microbe, parasite or virus in culture; assay type: cell-based; settings: NHBE

O=C(NC1CC1)c1cc2c(s1)-c1ccccc1N(C(=O)c1ccc(NC(=O)c3ccccc3-c3ccccc3)cc1)CC2 [YM-53403]
EC50 (RSV strain A2): 350 nM | CC50 (HEp-2 Cells): > 50000 nM

Cc1cn([C@H]2C[C@H](N=[N+]=[N-])[C@@H](CO)O2)c(=O)[nH]c1=O [AZT, zidovudine]
EC50 (HIV-1 clinical isolates; Human immunodeficiency virus 1, BAL, PBMC, HIV-1 subtype B isolate BaL, human PBMCs): 3.8 ± 0.6 nM | EC50 (HIV-1 clinical isolates; Human immunodeficiency virus 1, PBMC, HIV-1 subtype A isolate 92RW016, human PBMCs): 2 ± 0.3 nM | EC50 (HIV-1 clinical isolates; Human immunodeficiency virus 1, PBMC, HIV-1 subtype A isolate 92UG037, human PBMCs): 11.2 ± 3.7 nM | EC50 (HIV-1 clinical isolates; Human immunodeficiency virus 1, PBMC, HIV-1 subtype B isolate 89BZ_167, human PBMCs): 3.6 ± 0.8 nM | EC50 (HIV-1 clinical isolates; Human immunodeficiency virus 1, PBMC, HIV-1 subtype B isolate 91US001, human PBMCs): 5.5 ± 2.5 nM | EC50 (HIV-1 clinical isolates; Human immunodeficiency virus 1, PBMC, HIV-1 subtype B isolate 91US004, human PBMCs): 2.6 ± 1.5 nM | EC50 (HIV-1 clinical isolates; Human immunodeficiency virus 1, PBMC, HIV-1 subtype C isolate 93IN905, human PBMCs): 1.6 ± 0.7 nM | EC50 (HIV-1 clinical isolates; Human immunodeficiency virus 1, PBMC, HIV-1 subtype C isolate 98US_MSC5016, human PBMCs): 7.9 ± 4.4 nM | EC50 (HIV-1 clinical isolates; Human immunodeficiency virus 1, PBMC, HIV-1 subtype D isolate 98UG_57128, human PBMCs): 0.07 ± 0.03 nM | EC50 (HIV-1 clinical isolates; Human immunodeficiency virus 1, PBMC, HIV-1 subtype E isolate 96TH_M02138, human PBMCs): 5.5 ± 0.4 nM | EC50 (HIV-1 clinical isolates; Human immunodeficiency virus 1, PBMC, HIV-1 subtype E isolate 96TH_NI1046, human PBMCs): 2.3 ± 0.7 nM | EC50 (HIV-1 clinical isolates; Human immunodeficiency virus 1, PBMC, HIV-1 subtype F isolate 93BR020, human PBMCs): 8.1 ± 7.1 nM | EC50 (HIV-2 CDC 310319): 9.3 ± 4.6 nM

CCOC(=O)/C=C/[C@H](C[C@@H]1CCNC1=O)NC(=O)[C@@H](CC(=O)[C@@H](NC(=O)c1cc(C)on1)C(C)C)Cc1ccc(F)cc1 [Rupintrivir, rupintrivir]
CC50 (in vitro [1]): > 10000 nM | EC50 [2]: 30 nM

C[C@@]1(O)[C@H](O)[C@@H](CO)O[C@H]1n1cnc2c(N)ncnc21 [Compound 2-CMeA, 2′-C-methyladenosine]
CC50 (in vitro [3]): 42200 nM | EC50 (HCV 1b Replicon): 112 nM | EC50 (HCV 2a Replicon): 301 nM | CC50 (in vitro [4]): > 44000 nM

Nc1nc2c(ncn2[C@@H]2O[C@H](CO)[C@@H](O)[C@H]2F)c(=O)[nH]1 [2'-FDG, 2′-fluoro-2′-deoxyguanosine]
CC50 (in vitro [5]): > 100000 nM | EC50 (Influenza B/LEE/40): 14000 nM | EC50 (Influenza A/PC/1/73): 6000 nM
